Series [1] has as its system coronary endothelial cells. Briefly: Inhibition of adenosine utilization in cell culture. It counts as cell-based. The settings on record: 1 μM [3H] adenosine, 15 minutes; for inhibition at 5 µM / inhibition at 50 µM: Endothelial cell. The procedure: In this assay, endothelial cells were incubated with 5 μM or 50 μM of the test compound together with 1 μM [^3H] adenosine for 15 minutes. Inhibition of adenosine utilization was determined by measuring the concentration of extracellular adenosine by scintillation counting following separation by thin layer chromatography (TLC).

Series [2] deals with platelet aggregation in human whole blood. Briefly: Inhibition of platelet aggregation in human whole blood. The settings on record: 10 minutes at 37° C., 10 µM adenosine added, ADP (6-25 μM). The series is classed as cell-based. As to the method:
Whole blood was drawn from healthy donors and collected in 0.1 vol. of sodium citrate to prevent coagulation. Platelet aggregation was measured by the impedance technique using a Whole Blood Aggregometer. The test compounds were incubated in whole blood for 10 minutes at 37° C. and 10 µM adenosine was added 5 minutes before eliciting aggregation. Aggregation was induced by addition of ADP (6-25 μM) at the minimum concentration inducing full aggregation in untreated controls.

The test system of series [3] is patients undergoing coronary artery bypass surgery. As to the kind of experiment: Aspirin within 48 hours of revascularization: prospective study of CABG patients. The series is classed as in vivo. The text has this: A prospective, longitudinal study enrolled 5,436 patients. Eligible patients included those with medically-refractory coronary artery disease and scheduled for coronary artery bypass surgery at 70 medical institutions among 17 countries in North and South America, Europe, the Middle East and Asia. At each institution, 100 patients were to be prospectively enrolled according to a systematic sampling scheme that allowed a random sampling of patients at each institution among all patients undergoing surgery at that institution.
Of the 5,436 patients enrolled, 5,065 patients completed the study and were included in the final analysis. Of the 371 patients excluded, 32 were excluded due to patient withdrawal, 2 due to death prior to surgery, 97 due to cancellation or rescheduling of surgery, 132 patients due to change in procedure, 11 due to inadvertent enrollment in another study, 86 due to incomplete data and 11 due to incomplete blood sampling, shipping or storage.
Aspirin was administered in doses of 160 mg to 650 mg to 3,001 patients within 48 hours of revascularization. All potential side-effects associated with aspirin use were recorded daily by blinded investigators. Independent investigators coded all medications received-including pro- and anti-thrombotic and pro- and anti-coagulant medications, and blood products—by day throughout hospitalization, as well as at admission and at discharge, or until death.
For each enrolled patient, approximately 7,500 fields of data were collected throughout the patient's index hospitalization, from admission until discharge, by independent investigators; treated physicians were blinded to all research data. Data included demographic, historical, clinical, laboratory, eloectrocardiographic, specialized testing, resource utilization, and adverse outcomes. Following last patient enrollment, all data fields for each patient were queried centrally for completeness and accuracy, with all changes documented prior to database closure.
All outcomes were prespecified, defined by protocol, and discerned by investigators blinded to treatment group. Fatal and non-fatal outcomes were classified as cardiac (myocardial infarction, congestive heart failure and cardiac death), cerebral (stroke, encephalopathy and cerebral death), renal (dysfunction, failure and renal death), gastrointestinal (ischemia, infarction and GI death), or other (such as infectious, pulmonary). The diagnosis of myocardial infarction required either: the development of new Q waves (as defined by Minnesota Code 1-1-1I or 1I-2-7); or new persistent S T-segment or T-wave changes (Minnesota Code 4-1, 4-2, 5-1 or 5-2) associated with an elevation of CK-MB isoenzyme values; or autopsy evidence of acute myocardial infarction. The diagnosis of heart failure required either: the use of a ventricular assist device; or the use of continuous inotropic support for at least 24 hours; or autopsy evidence of heart failure. Cerebral outcomes were classified as: clinically diagnosed stroke or encephalopathy; or CT, MRI or autopsy evidence of a focal or global defect. Renal dysfunction was defined as: a serum creatinine ≧177 μmol/L accompanied by a ≧62 μmol/L rise over baseline; and renal failure was defined as dysfunction requiring dialysis, or autopsy evidence of renal failure. Gastrointestinal ischemia was defined as abdominal pain diagnosed as intestinal ischemia, or detected at exploration; infarction required bowel resection, or autopsy evidence of intestinal infarction.
The risk of death for aspirin taking versus control populations were compared using the Chi-Square test. Individual ischemic outcomes involving the heart, brain, kidney and gastrointestinal tract, and combined ischemic outcomes were compared using Fisher's Exact Test or the Chi-Square test as appropriate. Odds ratios and the 95% confidence intervals are presented with associated P values. […]

In series [4] the test system is longitudinal muscle from the guinea pig ileum. As to the kind of experiment: Inhibition of stimulated contraction in isolated ileum. As to conditions: electrically stimulated guinea pig ileum muscle. An excerpt: These are detailed in Table II.
The subject of series [5] is ischemic rat hearts. As to the kind of experiment: Rat heart ischemia model: tissue adenosine levels. It counts as in vivo. As to conditions: intraperitoneal; hearts excised after 60 minutes, incubated 60 minutes at 37° C. The procedure:
Male rats were injected intraperitonealy with either the AICA riboside analog, AICA riboside or saline, as a control. After 60 minutes, the hearts were excised and incubated at 37° C. for a further 60 minutes. Tissue extracts were prepared and analyzed for adenosine by high performance liquid chromatography (HPLC).

In series [6] the target is T1, NBTI-specific adenosine transport site (UniProt O54698).
T1 sequence (O54698 1-457): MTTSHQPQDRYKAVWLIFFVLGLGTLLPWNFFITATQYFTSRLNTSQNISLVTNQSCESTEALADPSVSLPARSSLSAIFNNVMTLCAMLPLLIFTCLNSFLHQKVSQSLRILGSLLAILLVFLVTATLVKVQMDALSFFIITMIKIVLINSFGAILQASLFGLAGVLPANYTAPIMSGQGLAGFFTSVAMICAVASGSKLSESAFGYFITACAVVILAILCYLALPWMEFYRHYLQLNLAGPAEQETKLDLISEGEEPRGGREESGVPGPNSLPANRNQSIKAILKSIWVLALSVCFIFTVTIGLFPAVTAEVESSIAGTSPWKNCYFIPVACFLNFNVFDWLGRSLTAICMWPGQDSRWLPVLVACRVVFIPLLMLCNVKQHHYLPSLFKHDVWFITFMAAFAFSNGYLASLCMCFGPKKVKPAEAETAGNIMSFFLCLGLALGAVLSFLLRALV
As to the kind of experiment: [3H]-NBTI binding assay. As to conditions: read-out: ED50 (50% displacement of bound [3H]-NBTI); 0.5 mg neuronal membrane protein, 0.5 nM [3H]-NBTI, 30 minutes. As to the method:
Increasing concentrations of the test compounds were incubated for 30 minutes with 0.5 mg neuronal membrane protein together with 0.5 nM [^3 H]-NBTI in a Tris buffer (pH 7.4) at room temperature. The assays were quenched and membranes collected by rapid filtration. Filters were then solubilized and radioactivity determined by scintillation counting.

The melting point is the temperature, or range, at which the solid turns liquid. By inhibition is commonly meant the change of the read-out against control, counted positive when it falls. By IC50 is commonly meant the concentration at which inhibition is half-maximal. A low value points to higher potency.

`Nc1c(C(=O)NCc2ccc([N+](=O)[O-])cc2)ncn1C1OC(CCl)C(O)C1O` (stereo not shown) [51 (1-466)] displayed a melting point of 174 to 176 °C. The inhibition at 5 µM in series [1] (5 μM) came out at 27 ± 2%. Moreover, at 50 µM the inhibition in series [1] (50 μM) was 65 ± 2%. This molecule came in with an IC50 in series [2] (Homo sapiens, Platelet, 10 min) of 193 µM.

`CC(=O)Oc1ccccc1C(=O)O` [Aspirin]: the “Odds Ratio for mortality (multivariate)” value in series [3] (Aspirin use (admission)) was found to be 1.46; in series [3] (Aspirin use (prior to surgery)) it was 0.77; in series [3] (Aspirin use following revascularization), 0.27; in series [3] (Discontinuation of aspirin use) it was 1.04. Moreover, the Length of hospitalization in series [3] (aspirin group, 11.32±9.44 without) amounted to 9.57±7.14. For the same molecule, the “patients who died within 12 hours of surgery” value in series [3] (aspirin group, 25 patients in the control group) was “none”. In series [3] (aspirin group, 42 patients in the control group), the “patients who died within 48 hours of surgery” value is listed as “one”. The “risk of dying during hospitalization” value in series [3] (aspirin within 48 hours of revascularization, 5.9% without) is reported as 1.4%. Besides, the “non-fatal ischemic complications (heart, brain, kidney or gastrointestinal tract)” value in series [3] (aspirin within 48 hours of revascularization, 24.5% without) turned out to be 13.6%. The molecule further gave a reduction in mortality in series [3] (first use of aspirin 48 hours after surgery, not significant (P=0.534)) of 15%.

For the molecule `CC(=O)OC[C@H]1O[C@@H](c2nc(C(N)=O)c(N)[nH]2)[C@H](OC(C)=O)[C@@H]1OC(C)=O` [Compound No. 2 (1-111), 5-Amino-(2,3,5-tri-O-acetyl-beta-D-ribofuranosyl)imidazole-4-carboxamide], the melting point is 128 to 129 °C.

In the case of `Nc1c(C(=O)NC2CC2)ncn1[C@@H]1O[C@H](CO)[C@@H](O)[C@H]1O` [Compound No. 12 (1-232), 5-Amino-1-beta-D-ribofuranosylimidazole-4-N-(cyclopropyl)carboxamide], the IC50 in series [4] amounted to 400 µM. The “Tissue Adenosine Levels (% Increase vs. Saline)” value in series [5] is given as 29%.

Take `Nc1c(C(=O)NCc2ccc([N+](=O)[O-])cc2)ncn1C1OC(CO)C(O)C1O` [Compound No. 23 (1-343), 5-Amino-1-β-D-ribofuranosyl-imidazole-4-N-[(4-nitrophenyl)methyl]carboxamide]: in series [1] (5 μM), the inhibition at 5 µM is 27 ± 4%. Further, the inhibition at 50 µM in series [1] (50 μM) is 63 ± 2%. The IC50 in series [4] (Cavia porcellus) was 3 µM; in series [2] (Homo sapiens, Platelet, 10 min) it was 38 µM. For the same molecule, in series [6], the EC50 was 3 µM.

In series [1] (5 μM), `Nc1c(C(=O)NCc2ccc(Cl)cc2)ncn1C1OC(CO)C(O)C1O` [Compound No. 29 (1-349), 5-amino-1-β-D-ribofuranosylimidazole-4-N-[(4-Chlorophenyl)methyl]carboxamide] had an inhibition at 5 µM of 41 ± 11%. The same molecule yielded an inhibition at 50 µM in series [1] (50 μM) of 67 ± 8%. Further, the half-maximal inhibitory concentration (IC50) in series [4] (Cavia porcellus) is 60 µM; in series [2] (Homo sapiens, Platelet, 10 min), 90 µM. In series [6], the EC50 was 100 µM.

As to `Nc1c(C(=O)NN2CCCCC2)ncn1[C@@H]1O[C@H](CO)[C@@H](O)[C@H]1O` [Compound No. 36 (1-207), 5-amino-4-(1-piperidinocarbamoyl)-1-β-D-ribofuranosylimidazole], in series [5], the “Tissue Adenosine Levels (% Increase vs. Saline)” value is listed as 34%.

Take `NC(=O)c1nc(Sc2ccccc2)n([C@@H]2O[C@H](CO)[C@@H](O)[C@H]2O)c1N` [Compound No. 43 (1-432), 5-Amino-2-thiophenyl-1-β-D-ribofuranosylimidazole-4-carboxamide]: the results for the IC50 in series [4] and in series [2] were 200 µM and 620 µM, respectively. For the same molecule, the EC50 in series [6] was 71 µM.

On to `Nc1c(C(=O)Nc2ccc(Br)cc2)ncn1C1OC(CO)C(O)C1O` [Compound No. 55 (1-484), 5-Amino-1-β-D-ribofuranosylimidazole-4-N-(4-bromophenyl)carboxamide], for which the melting point is 214 to 216 °C (dec.). Besides, in series [6], the EC50 is 60 µM.

For `Nc1c(C(=O)NCc2ccc(Br)cc2)ncn1C1OC(CO)C(O)C1O` [Compound No. 56 (1-487), 5-Amino 1-β-D-ribofuranosyl-imidazole-4-N-[(4-bromophenyl)methyl]carboxamide], in series [1] (5 μM), the inhibition at 5 µM turned out to be 55 ± 7%. Moreover, testing at 50 µM in series [1] (50 μM) gave an inhibition of 65 ± 9%. The EC50 in series [6] was determined as 32 µM. The molecule further yielded an IC50 in series [2] (Homo sapiens, Platelet, 10 min) of 75 µM.

Turning to `Nc1c(C(=O)Nc2ccc(I)cc2)ncn1C1OC(CO)C(O)C1O` [Compound No. 57 (1-488), 5-Amino-1-β-D-ribofuranosyl-imidazole-4-N-(4-iodophenyl) carboxamide], the melting point lay within 227 to 229 °C. For the same molecule, the EC50 in series [6] is 80 µM.

For the molecule `C[C@H]1O[C@@H](n2cnc(C(=O)NCc3ccc(Cl)cc3)c2N)[C@H](O)[C@@H]1O` [Compound No. 61 (1-509), 5-Amino-1-(5-deoxy-β-D-ribofuranosyl)imidazole-4N-[(4-chlorophenyl)methyl]carboxamide], the “Inhibition of Adenosine Utilization (%)” value in series [1] (5 μM) is recorded as 37 ± 28%; in series [1] (50 μM) it was 72 ± 5%. Also, the EC50 in series [6] worked out at 32 µM. For the same molecule, in series [2], half-maximal inhibition (IC50) was put at 171 µM.

`Nc1c(C(=O)Nc2ccccc2Cl)ncn1C1OC(CO)C(O)C1O` [Compound No. 64 (1-519), 5-Amino-1-β-D-ribofuranosylimidazole-4-N-(2-chlorophenyl)carboxamide]: the melting point fell in the range of 131 to 135 °C. In addition, the EC50 in series [6] is 48 µM.

Take `CC(=O)CC(c1ccccc1)c1c(O)c2ccccc2oc1=O` (stereo not shown) [Warfarin/coumadin]: the “Odds Ratio for mortality (multivariate)” value in series [3] (Warfarin/coumadin over the week prior to revascularization) was 2.00.

Source of the values: US8993527B2, “Methods, compositions, and formulations for preventing or reducing adverse effects in a patient” (Pericor Therapeutics, Inc., priority 2005, dated 2015).
